The test system of series [1] is rat liver mitochondria (RLM). The experiment in a line: AntiOxCINs uptake by energised rat liver mitochondria (TPP-selective electrode). Format: in vitro ADME. The following applies: FIG. 3. The method, then: In an embodiment, and as an example, mitochondrial AntiOxCINs uptake was assessed in isolated rat liver mitochondria (RLM) in response to the membrane potential. AntiOxCINs can accumulate inside mitochondria driven by the ΔΨ (FIG. 3A). Different AntiOxCINs accumulation outlines within the mitochondrial matrix have been noticed. […] However, the linear increase of AntiOxCINs lipophilicity was not directly translated into an increase in the ratio of mitochondrial matrix accumulation (FIG. 3B). The following ranking order was attained: AntiOxCIN1<AntiOxCIN2<[…]<AntiOxCIN3 (catechol series); AntiOxCIN4<AntiOxCIN7<AntiOxCIN6 (pyrogallol series) (FIG. 3C).
(§1) In an embodiment, the evaluation of AntiOxCINs functional mitochondrial toxicity profile was performed in rat liver mitochondria (RLM). RLM were prepared by tissue homogenization followed by differential centrifugations in ice-cold buffer containing 250 mM sucrose, 10 mM HEPES (pH 7.4), 1 mM EGTA, and 0.1% fat-free bovine serum albumin. After obtaining a crude mitochondrial preparation, pellets were washed twice and resuspended in washing buffer (250 mM sucrose and 10 mM HEPES, pH 7.4). The protein concentration was determined by the biuret assay using BSA as a standard.
In an embodiment, the AntiOxCINs mitochondria uptake by energized RLM was evaluated as follows: RLM (0.5 mg protein/mL) were incubated with AntiOxCINs at 37° C. under constant stirring in 1 mL of KCl medium (120 mM KCl, 10 mM HEPES, pH 7.2 and 1 mM EGTA). Five sequential 1 μM additions of each AntiOxCINs were performed to calibrate the electrode response in the presence of rotenone (1.5 μM). Then, succinate (10 mM) was added to generate AN. Valinomicin (0.2 μg/mL) was added at the end of the assay to dissipate AN. […] The mitochondrial accumulation ratio was calculated by the disappearance of AntiOxCINs from extra- to intramitochondrial medium assuming an intramitochondrial volume of 0.5 μL/mg protein and a binding correction for the mitochondrial uptake of TPP compounds.

A short description of series [2]: DPPH radical scavenging activity (TAC assay). It is filed as biochemical. The conditions noted are these: ethanol, absorbance 515 nm. The source says:
In an embodiment, the AntiOxCINs antioxidant ranking activity hierarchy was established by in vitro non-cell methods. The selected total antioxidant capacity (TAC) assays (DPPH, ABTS and GO) involved the spectrophotometric measurement of the radical absorbance decrease as a result of an in situ radical deactivation by an antioxidant. Compounds with higher antioxidant activity display lower IC50 values. […] This decrease was attenuated/ameliorated by the increment of the spacer length and/or the introduction of additional hydroxyl group in the aromatic ring.
The radical scavenging activity of AntiOxCINs was evaluated by means of total antioxidant capacity assays based on DPPH., ABTS.^+ and GO. radicals. All these methods involved the spectrophotometric measurement of the absorbance decrease resulting from radical (DPPH., ABTS.^+ or GO.) deactivation with an antioxidant. The results were expressed in IC50, which is defined as the minimum antioxidant concentration necessary to reduce the amount of radical by 50%. Antioxidant assays were performed in a multiplate reader (Powerwave XS Microplate Reader) of Bio-Tech instruments.
In an embodiment, the DPPH. radical scavenging activity was performed as follows: solutions of the test compounds with increasing concentrations (range between 0 μM and 500 μM) were prepared in ethanol. A DPPH′ ethanolic solution (6.85 mM) was also prepared and then diluted to reach the absorbance of 0.72±0.02 at 515 nm. Each compound solution (20 μL) was added to 180 μL of DPPH′ solution in triplicate, and the absorbance at 515 nm was recorded minutely over 45 minutes. […] Dose-response curves were established for the determination of IC50 values. Data are means±SEM of three independent experiments.

The nature of series [3]: Iron (II) chelating properties, ferrozine assay. It is filed as biochemical. The following applies: 100 μM, EDTA=100%. As to the method:
In an embodiment, AntiOxCINs iron (II) chelating properties were evaluated by the ferrozine assay using ethylenediaminetetracetic acid (EDTA) as reference.
In an embodiment, AntiOxCINs iron chelating properties were evaluated by the spectrophotometric ferrozine method performed in a multiplate reader (Powerwave XS Microplate Reader) of Bio-Tech instruments.
In an embodiment, the AntiOxCINs iron chelating properties were evaluated as follows: in each well, a solution of the test compound (100 μM) and ammonium iron (II) sulphate in ammonium acetate (20 μM) were added, incubated for 10 min and the absorbance was read at 562 nm. Then, a freshly prepared solution of ferrozine (5 mM) was added to each well (96 μM final concentration). After a new incubation at 37° C. for 10 min period, the absorbance of [Fe(ferrozine)3]^2+ complex was measured at 562 nm. Blank wells were run using DMSO instead of the test compounds. EDTA was used as a reference. All compounds were tested at a final concentration of 100 μM. The absorbance of the first reading was subtracted to the final values to abolish any absorbance due to the test compounds. Data are means±SEM of three independent experiments and are expressed as % of Fe(II) chelation (EDTA=100%).

The subject of series [4] is mitochondrial permeability transition pore (mPTP) of RLM. The experiment in a line: Mitochondrial permeability transition pore (mPTP) opening, mitochondrial swelling. Format: biochemical, rat. The conditions noted are these: 2.5, 5 and 10 μM, pre-incubated 5 min before calcium, FIG. 7A-C. As to the method:
In an embodiment, the AntiOxCINs effects on mitochondrial permeability transition pore (mPTP) opening were evaluated. In general, less lipophilic AntiOxCINs had no effect on mPTP opening for all tested concentrations (FIG. 7A-C).
as §1
In an embodiment, the effect of AntiOxCINs on mitochondrial permeability transition pore opening were measured as follows: mitochondrial swelling was estimated by measuring the alterations of light scattered from a mitochondrial suspension, as monitored spectrophotometrically at 540 nm. Increasing concentrations of AntiOxCINs (2.5-10 μM) were added to the reaction medium (200 mM sucrose, 1 mM KH2PO4, 10 mM Tris (pH 7.4), 5 mM succinate and 10 μM EGTA supplemented with 1.5 μM rotenone), in the presence of RLM (1 mg), and allowed to incubate for a 5 min period before the assay. The experiments were initiated by the addition of a suitable concentration of Ca^2+ (15-50 μM), titrated every day. […] The reaction was stirred continuously and the temperature maintained at 37° C. Data are means±SEM of three independent experiments and are expressed as Aabsorbance at 540 nm.

The record followed here is patent US10913757B2, “Hydroxycinnamic derivatives, methods and uses thereof” (UNIVERSIDADE DO PORTO, priority 2016, dated 2021).

A word on the pIC50: it is −log10 of the IC50, conventionally taken in molar units. High values mean a small IC50, low ones a large IC50.

Structures are written as SMILES. pIC50: −log10 of the molar value. Entries after “also recorded” stand apart in the source; their conditions may differ.

For `CS(=O)(=O)[O-].O=C(/C=C/c1ccc(O)c(O)c1)NCCCCCC[P+](c1ccccc1)(c1ccccc1)c1ccccc1` [AntiOxCIN2, (E)-(6-(3-(3,4-dihydroxyphenyl)prop-2-enamido)hexyl)triphenylphosphonium methanesulfonate], in series [1], the mitochondrial accumulation ratio entry is on record as “approximately the same accumulation ratio”. The same compound gave a pIC50 in series [2] of 4.53. Also, in series [3] (FIG. 2), the “iron (II) chelation” value is reported as “higher iron chelation activity than caffeic acid itself”.

With `O=C(O)/C=C/c1ccc(O)c(O)c1` [Caffeic acid, caffeic acid, reference compound], the negative logarithm of the IC50 (pIC50) in series [2] was 4.74. Moreover, the “iron (II) chelation” value in series [3] (FIG. 2) was “able to chelate ferrous iron alike EDTA”.

Regarding `CS(=O)(=O)[O-].O=C(/C=C/c1cc(O)c(O)c(O)c1)NCCCCCCCC[P+](c1ccccc1)(c1ccccc1)c1ccccc1` [AntiOxCIN5, (E)-(8-(3-(3,4,5-trihydroxyphenyl)acrylamido)octyl)triphenylphosphonium methanesulfonate], the “effect on calcium-dependent mPTP opening” value in series [4] is given as “inhibition of calcium-dependent mPTP opening”. In addition, the pIC50 in series [2] is 4.83.

With `CS(=O)(=O)[O-].O=C(/C=C/c1ccc(O)c(O)c1)NCCCCCCCCCC[P+](c1ccccc1)(c1ccccc1)c1ccccc1` [AntiOxCIN6, (E)-(10-(3-(3,4-dihydroxyphenyl)acrylamido)decyl)triphenylphosphonium methanesulfonate], the “effect on calcium-dependent mPTP opening” value in series [4] is “inhibition of calcium-dependent mPTP opening”. Further, in series [2], the negative logarithm of the IC50 (pIC50) is 4.59.

On to `CS(=O)(=O)[O-].O=C(/C=C/c1cc(O)c(O)c(O)c1)NCCCCCC[P+](c1ccccc1)(c1ccccc1)c1ccccc1` [AntiOxCIN4, (E)-(6-(3-(3,4,5-trihydroxyphenyl)prop-2-enamido)hexyl)triphenylphosphonium methanesulfonate], for which the mitochondrial accumulation ratio entry in series [1] was “approximately the same accumulation ratio”. In series [2], this compound had a negative-log IC50 (pIC50) of 4.72. The “iron (II) chelation” value in series [3] (FIG. 2, methanesulfonate) is “higher iron chelation activity than caffeic acid itself; also recorded: remarkable iron-chelation property”.

For the compound `CS(=O)(=O)[O-].O=C(/C=C/c1cc(O)c(O)c(O)c1)NCCCCCCCCCC[P+](c1ccccc1)(c1ccccc1)c1ccccc1` [AntiOxCIN7, (E)-(10-(3-(3,4,5-trihydroxyphenyl)acrylamido)decyl)triphenylphosphonium methanesulfonate], the “effect on calcium-dependent mPTP opening” value in series [4] is given as “inhibition of calcium-dependent mPTP opening”. In series [1], the mitochondrial accumulation ratio entry is “lower accumulation ratio”. Moreover, the negative logarithm of the IC50 (pIC50) in series [2] was 4.86.

With `CS(=O)(=O)[O-].O=C(/C=C/c1ccc(O)c(O)c1)NCCCCCCCC[P+](c1ccccc1)(c1ccccc1)c1ccccc1` [AntiOxCIN3, (E)-(8-(3-(3,4-dihydroxyphenyl)acrylamido)octyl)triphenylphosphoniummethanesulfonate], the “effect on calcium-dependent mPTP opening” value in series [4] was “inhibition of calcium-dependent mPTP opening”. The pIC50 in series [2] was 4.55.
